Source: patent publication US8450361B2, “Substituted indole and azaindole oxoacetyl piperazinamide derivatives” (priority 2010, dated 2013)

System: HIV-1
Assay: Single-round infectious HIV-1 luciferase reporter virus infection of HeLa CD4 cells
Assay type: cell-based
Conditions: Human immunodeficiency virus 1, HeLa, 72 h, read-out: EC50 Group from Table 1
Protocol: • Virus production—Human embryonic Kidney cell line, 293T, was propagated in Dulbecco's Modified Eagle Medium (Invitrogen, Carlsbad, Calif.) containing 10% fetal Bovine serum (FBS, Sigma, St. Louis, Mo.). • Virus infection—Human epithelial cell line, HeLa, expressing the HIV-1 receptor CD4 was propagated in Dulbecco's Modified Eagle Medium (Invitrogen, Carlsbad, Calif.) containing 10% fetal Bovine serum (FBS, Sigma, St. Louis, Mo.) and supplemented with 0.2 mg/mL Geneticin (Invitrogen, Carlsbad, Calif.). Virus—Single-round infectious reporter virus was produced by co-transfecting human embryonic Kidney 293 cells with an HIV-1 envelope DNA expression vector and a proviral cDNA containing an envelope deletion mutation and the luciferase reporter gene inserted in place of HIV-1 nef sequences (Chen et al, Ref 41). Transfections were performed using lipofectAMINE PLUS reagent as described by the manufacturer (Invitrogen, Carlsbad, Calif.). Experiment • 1. HeLa CD4 cells were plated in 96 well plates at a cell density of 1×10^4 cells per well in 100 μl Dulbecco's Modified Eagle Medium containing 10% fetal Bovine serum and incubated overnight. • 2. Compound was added in a 2 μl dimethylsulfoxide solution, so that the final assay concentration would be ≦10 μM. • 3. 100 μl of single-round infectious reporter virus in Dulbecco's Modified Eagle Medium was then added to the plated cells and compound at an approximate multiplicity of infection (MOI) of 0.01, resulting in a final volume of 200 μl per well. • 4. Virally-infected cells were incubated at 37 degrees Celsius, in a CO2 incubator, and harvested 72 h after infection. • 5. Viral infection was monitored by measuring luciferase expression from viral DNA in the infected cells using a luciferase reporter gene assay kit, as described by the manufacturer (Roche Molecular Biochemicals, Indianapolis, Ind.). Infected cell supernatants were removed and 50 μl of lysis buffer was added per well. After 15 minutes, 50 μl of freshly-reconstituted luciferase assay reagent was added per well. Luciferase activity was then quantified by measuring luminescence using a Wallac microbeta scintillation counter. • 6. The percent inhibition for each compound was calculated by quantifying the level of luciferase expression in cells infected in the presence of each compound as a percentage of that observed for cells infected in the absence of compound and subtracting such a determined value from 100. • 7. An EC50 provides a method for comparing the antiviral potency of the compounds of this invention. The effective concentration for fifty percent inhibition (EC50) was calculated with the Microsoft Excel Xlfit curve fitting software. For each compound, curves were generated from percent inhibition calculated at 10 different concentrations by using a four parameter logistic model (model 205). Table 1 is the key for the data in Table 2. Results

| Compound | EC50 [nM] |
| --- | --- |
| C[C@@H]1CN(C(=O)c2ccccc2)CCN1C(=O)C(=O)c1c[nH]c2c(NC(=O)CNC(C)(C)C)cccc12 [P-A-1] | < 1000 |
| C[C@@H]1CN(C(=O)c2ccccc2)CCN1C(=O)C(=O)c1c[nH]c2c(NC(=O)C[N+](C)(C)C)cccc12 [P-A-2] | < 1000 |
| C[C@@H]1CN(C(=O)c2ccccc2)CCN1C(=O)C(=O)c1c[nH]c2c(NC(=O)CN(C)C)cccc12 [P-A-3] | < 1000 |
| CC(=O)OCC(=O)Nc1cccc2c(C(=O)C(=O)N3CCN(C(=O)c4ccccc4)C[C@H]3C)c[nH]c12 [P-A-4] | < 1000 |
| CC(=O)Nc1cccc2c(C(=O)C(=O)N3CCN(C(=O)c4ccccc4)C[C@H]3C)c[nH]c12 [P-A-5] | < 1000 |
| COC(=O)CCC(=O)Nc1cccc2c(C(=O)C(=O)N3CCN(C(=O)c4ccccc4)C[C@H]3C)c[nH]c12 [P-A-7] | < 1000 |
| C[C@@H]1CN(C(=O)c2ccccc2)CCN1C(=O)C(=O)c1c[nH]c2c(NC(=O)CCC(=O)O)cccc12 [P-A-8] | < 1000 |
| C[C@@H]1CN(C(=O)c2ccccc2)CCN1C(=O)C(=O)c1c[nH]c2c(NC(=O)/C=C/C(=O)O)cccc12 [P-A-9] | < 1000 |
| C[C@@H]1CN(C(=O)c2ccccc2)CCN1C(=O)C(=O)c1c[nH]c2c(NC(=O)C3OC3C(=O)O)cccc12 (stereo partly shown) [P-A-10] | < 1000 |
| COC(=O)[C@H]1OC(C)(C)O[C@@H]1C(=O)Nc1cccc2c(C(=O)C(=O)N3CCN(C(=O)c4ccccc4)C[C@H]3C)c[nH]c12 [P-A-13] | < 1000 |
| C[C@@H]1CN(C(=O)c2ccccc2)CCN1C(=O)C(=O)c1c[nH]c2c(NC(=O)[C@H]3OC(C)(C)O[C@@H]3C(=O)O)cccc12 [P-A-14] | < 1000 |
| COC(=O)[C@@H]1OC(C)(C)O[C@H]1C(=O)Nc1cccc2c(C(=O)C(=O)N3CCN(C(=O)c4ccccc4)C[C@H]3C)c[nH]c12 [P-A-15] | < 1000 |
| C[C@@H]1CN(C(=O)c2ccccc2)CCN1C(=O)C(=O)c1c[nH]c2c(NC(=O)[C@@H]3OC(C)(C)O[C@H]3C(=O)O)cccc12 [P-A-16] | < 1000 |
| COC(=O)C(O)C(O)C(=O)Nc1cccc2c(C(=O)C(=O)N3CCN(C(=O)c4ccccc4)C[C@H]3C)c[nH]c12 (stereo partly shown) [P-A-17] | < 1000 |
| C[C@@H]1CN(C(=O)c2ccccc2)CCN1C(=O)C(=O)c1c[nH]c2c(NC(=O)C(=O)O)cccc12 [P-A-18] | < 1000 |
| C[C@@H]1CN(C(=O)c2ccccc2)CCN1C(=O)C(=O)c1c[nH]c2c(NC(=O)c3ccccn3)cccc12 [P-A-20] | < 1000 |
| C[C@@H]1CN(C(=O)c2ccccc2)CCN1C(=O)C(=O)c1c[nH]c2c(NC(=O)c3ccno3)cccc12 [P-A-21] | < 1000 |
| C[C@@H]1CN(C(=O)c2ccccc2)CCN1C(=O)C(=O)c1c[nH]c2c(NC(=O)c3cccc(B(O)O)c3)cccc12 [P-A-22] | < 1000 |
| C[C@@H]1CN(C(=O)c2ccccc2)CCN1C(=O)C(=O)c1c[nH]c2c(NC(=O)c3ccc(B(O)O)cc3)cccc12 [P-A-23] | < 1000 |
| CC(=O)Nc1ccc(F)c2c(C(=O)C(=O)N3CCC(=C(C#N)c4ccccn4)CC3)c[nH]c12 [P-B-1] | < 1000 |
| CC(=O)Nc1ccc(F)c2c(C(=O)C(=O)N3CCN(C(=O)c4ccccc4)CC3)c[nH]c12 [P-B-2] | < 1000 |
| CC(=O)Nc1ccc(F)c2c(C(=O)C(=O)N3CC/C(=C(\C#N)c4ccccc4)CC3C)c[nH]c12 (stereo not shown) [P-B-3] | < 1000 |
| CC(=O)Nc1ccc(F)c2c(C(=O)C(=O)N3CCC(=C(C#N)c4ccccc4)CC3)c[nH]c12 [P-B-4] | < 1000 |
| CC(=O)Nc1ccc(F)c2c(C(=O)C(=O)N3CCC(=C(C#N)c4cccnc4)CC3)c[nH]c12 [P-B-5] | < 1000 |
| CC(=O)Nc1ccc(F)c2c(C(=O)C(=O)N3CCC(=C(C#N)c4ccncc4)CC3)c[nH]c12 [P-B-6] | < 1000 |
| CC(=O)Nc1ccc(F)c2c(C(=O)C(=O)N3CC/C(=C(\C#N)c4cccnc4)CC3C)c[nH]c12 (stereo not shown) [P-B-7] | < 1000 |
| CCOC(=O)CNC(=O)Nc1cccc2c(C(=O)C(=O)N3CCN(C(=O)c4ccccc4)C[C@H]3C)c[nH]c12 [P-C-1] | < 1000 |
| CCOC(=O)CCNC(=O)Nc1cccc2c(C(=O)C(=O)N3CCN(C(=O)c4ccccc4)C[C@H]3C)c[nH]c12 [P-C-2] | < 1000 |

| Compound | EC50 [nM] |
| --- | --- |
| CCOC(=O)CCNC(=O)Nc1cccc2c(C(=O)C(=O)N3CCC(=C(C#N)c4ccccc4)CC3)c[nH]c12 [P-C-3] | < 1000 |
| COC(=O)CCCNC(=O)Nc1cccc2c(C(=O)C(=O)N3CCN(C(=O)c4ccccc4)C[C@H]3C)c[nH]c12 [P-C-4] | < 1000 |
| CCOC(=O)CCCNC(=O)Nc1cccc2c(C(=O)C(=O)N3CCN(C(=O)c4ccccc4)C[C@H]3C)c[nH]c12 [P-C-5] | < 1000 |
| CCOC(=O)CCCNC(=O)Nc1cccc2c(C(=O)C(=O)N3CCC(=C(C#N)c4ccccc4)CC3)c[nH]c12 [P-C-6] | < 1000 |
| CCOC(=O)CCCCCNC(=O)Nc1cccc2c(C(=O)C(=O)N3CCN(C(=O)c4ccccc4)C[C@H]3C)c[nH]c12 [P-C-7] | < 1000 |
| CCOC(=O)CCCCCNC(=O)Nc1cccc2c(C(=O)C(=O)N3CCC(=C(C#N)c4ccccc4)CC3)c[nH]c12 [P-C-8] | < 1000 |
| COC(=O)c1ccccc1NC(=O)Nc1cccc2c(C(=O)C(=O)N3CCN(C(=O)c4ccccc4)C[C@H]3C)c[nH]c12 [P-C-9] | < 1000 |
| CCOC(=O)c1ccccc1NC(=O)Nc1cccc2c(C(=O)C(=O)N3CCN(C(=O)c4ccccc4)C[C@H]3C)c[nH]c12 [P-C-10] | < 1000 |
| CCOC(=O)c1ccccc1NC(=O)Nc1cccc2c(C(=O)C(=O)N3CCC(=C(C#N)c4ccccc4)CC3)c[nH]c12 [P-C-11] | < 1000 |
| CCOC(=O)c1cccc(NC(=O)Nc2cccc3c(C(=O)C(=O)N4CCN(C(=O)c5ccccc5)C[C@H]4C)c[nH]c23)c1 [P-C-12] | < 1000 |
| CCOC(=O)c1cccc(NC(=O)Nc2cccc3c(C(=O)C(=O)N4CCC(=C(C#N)c5ccccc5)CC4)c[nH]c23)c1 [P-C-13] | < 1000 |
| CCOC(=O)c1ccc(NC(=O)Nc2cccc3c(C(=O)C(=O)N4CCN(C(=O)c5ccccc5)C[C@H]4C)c[nH]c23)cc1 [P-C-14] | < 1000 |
| CCOC(=O)c1ccc(NC(=O)Nc2cccc3c(C(=O)C(=O)N4CCC(=C(C#N)c5ccccc5)CC4)c[nH]c23)cc1 [P-C-15] | < 1000 |
| COC(=O)c1cc(NC(=O)Nc2cccc3c(C(=O)C(=O)N4CCN(C(=O)c5ccccc5)C[C@H]4C)c[nH]c23)cc(C(=O)OC)c1 [P-C-16] | < 1000 |
| COC(=O)c1cc(NC(=O)Nc2cccc3c(C(=O)C(=O)N4CCC(=C(C#N)c5ccccc5)CC4)c[nH]c23)cc(C(=O)OC)c1 [P-C-17] | < 1000 |
| COS(=O)(=O)c1ccc(NC(=O)Nc2cccc3c(C(=O)C(=O)N4CCC(=C(C#N)c5ccccc5)CC4)c[nH]c23)cc1 [P-C-18] | < 1000 |
| C[C@@H]1CN(C(=O)c2ccccc2)CCN1C(=O)C(=O)c1c[nH]c2c(NC(=O)Nc3ccc(S(=O)(=O)O)cc3)cccc12 [P-C-19] | < 1000 |
| N#CC(=C1CCN(C(=O)C(=O)c2c[nH]c3c(NC(=O)Nc4ccc(S(=O)(=O)O)cc4)cccc23)CC1)c1ccccc1 [P-C-20] | < 1000 |
| CCN(CC)S(=O)(=O)c1ccc(NC(=O)Nc2cccc3c(C(=O)C(=O)N4CCC(=C(C#N)c5ccccc5)CC4)c[nH]c23)cc1 [P-C-21] | < 1000 |
| C[C@@H]1CN(C(=O)c2ccccc2)CCN1C(=O)C(=O)c1c[nH]c2c(NC(=O)Nc3ccc(C#N)cc3)cccc12 [P-C-22] | < 1000 |
| N#CC(=C1CCN(C(=O)C(=O)c2c[nH]c3c(NC(=O)Nc4ccc(C#N)cc4)cccc23)CC1)c1ccccc1 [P-C-23] | < 1000 |
| C[C@@H]1CN(C(=O)c2ccccc2)CCN1C(=O)C(=O)c1c[nH]c2c(NC(=O)NC3CCN(C(=O)C(F)(F)F)CC3)cccc12 [P-C-24] | < 1000 |
| N#CC(=C1CCN(C(=O)C(=O)c2c[nH]c3c(NC(=O)NC4CCN(C(=O)C(F)(F)F)CC4)cccc23)CC1)c1ccccc1 [P-C-25] | < 1000 |
| CCOC(=O)CCCNC(=O)Nc1ncc(F)c2c(C(=O)C(=O)N3CCN(C(=O)c4ccccc4)CC3)c[nH]c12 [P-C-26] | < 1000 |
| C[C@@H]1CN(C(=O)c2ccccc2)CCN1C(=O)C(=O)c1c[nH]c2c(NC(=O)NCCCCNC(=O)Nc3ccc(B(O)O)cc3)cccc12 [P-C-103] | < 1000 |
| C[C@@H]1CN(C(=O)c2ccccc2)CCN1C(=O)C(=O)c1c[nH]c2c(NC(=O)NCCCCCCNC(=O)Nc3ccc(B(O)O)cc3)cccc12 [P-C-106] | < 1000 |
| C[C@@H]1CN(C(=O)c2ccccc2)CCN1C(=O)C(=O)c1c[nH]c2c(NC(=O)NCCCCCCCCNC(=O)Nc3ccc(B(O)O)cc3)cccc12 [P-C-109] | < 1000 |
